Measurements from patent US20170136140A1, “Antimicrobial Compositions Utilizing Silver and Oxygen, Process for Making, and Method of Using the Same” (Avent, Inc., priority 2014, published 2017).
Read-outs that look alike come from different tables or passages of the source.

Experiments:
human fibroblasts = conditions: cited from earlier work
[1] = test system: Methicillin-resistant Staphylococcus aureus—MRSA (Clinical isolate); assay: Antimicrobial challenge test (time-kill) in 95% TSB, concentrated media and silver; assay type: cell-based; conditions: throughout the duration of the testing (3 and 6 hours), 100% oxygen headspace, no silver
Protocol: In the first sample, 10 ml of 95% tryptic soy broth (TSB) was inoculated with approximately 10^5 CFU of Methicillin-resistant Staphylococcus aureus—MRSA (Clinical isolate). […] Each test sample was then incubated at 37° C.; the level of surviving organisms was tested after 3 hours and 6 hours for each.
The challenge organism (MRSA Clinical isolate) was prepared by culturing in Soybean-Casein digest broth (TSB) at 35° C. for 18 to 24 hrs to an approximate concentration of 1.8×10^9 CFU per ml. • 2. For the challenge tests: 0.01 ml of the stock culture was added into a 50 ml screw top test tube and then diluted to 10 ml with 95% TSB broth to a final concentration of 1.8×10^6 CFU/ml. • 3. […] Silver Challenge test: To a test tube prepared as described from step 2; 100 μl of 30% wt/wt AgNO3 was added and vortexed to mix for a final concentration of 0.3% AgNO3. • b. Silver+O2 challenge test: To a test tube prepared as described from step 2; 100 μl of 30% wt/wt AgNO3 solution was added and vortexed to mix for a final concentration of 0.3% AgNO3. […] The samples were then incubated at 37° C. for both 3 and 6 hours. • d. At the 3 and 6 hour time point the samples were plated at different dilutions (10^−1, 10^−3, and 10^−5) to enumerate the surviving colonies. • i. The 3 hour samples was re-purged with 02 gas and returned to the incubating oven for an additional 3 hours. • ii. […]

[2] = test system: Pseudomonas aeruginosa (ATCC 9027); assay type: cell-based; conditions: 37° C., 0.03 ppm silver (from silver nitrate), 5% TSB, based on time zero plate count
Protocol: Each test sample was then incubated at 37° C.; the level of surviving organisms was tested after 3 hours and 6 hours for each.
The challenge organism (Pseudomonas aeruginosa ATCC 9027) was prepared by culturing in Soybean-Casein digest broth (TSB) at 35° C. for 18 to 24 hrs to an approximate concentration of 1.8×10^8 CFU per ml. • 2. For the challenge tests: 0.01 ml of the stock culture was added into a 50 ml screw top test tube and then diluted to 10 ml with 5% TSB broth to a final concentration of 1.8×10^5 CFU/ml. • 3. […] Silver Challenge test: To a test tube prepared as described from step 2; 100 μl of 3 ppm AgNO3 was added and vortexed to mix for a final concentration of 0.03 ppm AgNO3. • b. Silver+O2 challenge test: To a test tube prepared as described from step 2; 100 μl of 3 ppm Ag+ (from AgNO3) solution was added and vortexed to mix for a final concentration of 0.03 ppm AgNO3. […] The samples were then incubated at 37° C. for both 3 and 6 hours. • d. At the 3 and 6 hour time point the samples were plated at different dilutions (10^−1, 10^−3, and 10^−5) to enumerate the surviving colonies. • i. The 3 hour samples were re-purged with 02 gas and returned to the incubating oven for an additional 3 hours. • ii. The media used for plating was Trypticase soy agar (TSA). • e. The plates were incubated for 2 to 3 days before counting. • f. […]

For [Ag+] [Ionic silver], the “concentration cytotoxic to human fibroblasts” value (human fibroblasts) is listed as 1 parts per million.
For O=O [Sample 4, oxygen gas], the “change in the amount of colony forming units” value [1] was “increase”.
For silver nitrate [Sample 1], the “log reduction in the number of CFU” value ([2]; after 3 hours) was 2 log and the “log reduction in the number of CFU” value ([2]; after 6 hours) was 3 log.
